Assay results reported in US20070015823A1, “Ambruticin VS compounds” (priority 2004, published 2007).
≈ marks a conversion by molar mass, not a printed value. Like-named read-outs stand apart in the source and are kept apart here.

How the values were obtained:
[1] = system: Trichophyton interdigitale; assay: Dermatophyte broth microdilution, NCCLS M38-A; assay type: cell-based
Epidermophyton floccosum = assay: Dermatophyte broth microdilution, NCCLS M38-A; assay type: cell-based
Trichophyton rubrum = assay: Dermatophyte broth microdilution, NCCLS M38-A; assay type: cell-based
Microsporum gypseum = assay: Dermatophyte broth microdilution, NCCLS M38-A; assay type: cell-based
A. flavus ATCC 204304 = assay: Broth microdilution antifungal susceptibility, NCCLS M38-A; assay type: cell-based, Aspergillus flavus; conditions: minimal concentration inhibiting >95% growth; average of at least two assays (except I-l and I-x)
Microsporum canis = assay: Dermatophyte broth microdilution, NCCLS M38-A; assay type: cell-based
A. fumigatus ATCC 204305 = assay: Broth microdilution antifungal susceptibility, NCCLS M38-A; assay type: cell-based, Aspergillus fumigatus; conditions: minimal concentration inhibiting >95% growth; average of at least two assays (except I-l and I-x)
Cryptococcus neoformans = assay: as above; conditions: 50% growth inhibition, range = minimum and maximum of multiple assays; for MIC C. neoformans 97-14: strain 97-14; for MIC C. neoformans 11239: strain 11239; for MIC C. neoformans 11240: strain 11240
[2] = system: Trichophyton mentagrophytes; assay: Dermatophyte broth microdilution, NCCLS M38-A; assay type: cell-based
Blastomyces dermatitidis = assay: Broth microdilution antifungal susceptibility, NCCLS M38-A; assay type: cell-based
Histoplasma capsulatum = assay type: cell-based

| SMILES | MIC0 Ti [1] | MIC0 Ef (Epidermophyton floccosum) | MIC0 Tr (Trichophyton rubrum) | MIC0 Mg (Microsporum gypseum) | MIC0 A. flavus ATCC 204304 (A. flavus ATCC 204304) | MIC0 Mc (Microsporum canis) | MIC0 A. fumigatus ATCC 204305 (A. fumigatus ATCC 204305) | MIC C. neoformans 97-14 (Cryptococcus neoformans) | MIC C. neoformans 11239 (Cryptococcus neoformans) | MIC C. neoformans 11240 (Cryptococcus neoformans) | MIC0 Tm [2] | MIC B. dermatitidis Gu (Blastomyces dermatitidis) | MIC B. dermatitidis Kr (Blastomyces dermatitidis) | MIC B. dermatitidis V (Blastomyces dermatitidis) | MIC H. capsulatum G217B (Histoplasma capsulatum) | MIC H. capsulatum GS20 (Histoplasma capsulatum) | other results |
| --- | --- | --- | --- | --- | --- | --- | --- | --- | --- | --- | --- | --- | --- | --- | --- | --- | --- |
| CC[C@H]1O[C@@H](/C(C)=C/[C@H](C)/C=C/[C@H]2[C@@H](C)[C@@H]2/C=C/[C@@H]2O[C@H](CC(=O)O)C[C@H](N(C)CC)[C@H]2O)CC=C1C [I-a, (5S,6R)-5-(N-ethyl-methylamino)-6-hydroxypolyangioic acid] | 2 µg/mL | 4 µg/mL | 2 µg/mL | 2.51 µg/mL | 2.0 µg/mL | 1.41 µg/mL | 2.0 µg/mL | 1 µg/mL (≈ 1.94 µM) | 2 µg/mL (≈ 3.88 µM) | 2 µg/mL (≈ 3.88 µM) | 5.65 µg/mL |  |  |  |  |  |  |
| CC[C@H]1O[C@@H](/C(C)=C/[C@H](C)/C=C/[C@H]2[C@@H](C)[C@@H]2/C=C/[C@@H]2O[C@H](CC(=O)O)C[C@H](NC3CCCC3)[C@H]2O)CC=C1C [I-d, (5S,6R)-5-(cyclopentylamino)-6-hydroxypolyangioic acid] | 2.51 µg/mL | 4 µg/mL | 3.17 µg/mL | 2.51 µg/mL | 8.0 µg/mL | 2.82 µg/mL | 8.0 µg/mL |  |  |  | 8 µg/mL | >12.5 µg/mL | >12.5 µg/mL | >12.5 µg/mL | <0.19 µg/mL | <0.19 µg/mL |  |
| CC[C@H]1O[C@@H](/C(C)=C/[C@H](C)/C=C/[C@H]2[C@@H](C)[C@@H]2/C=C/[C@@H]2O[C@H](CC(=O)O)C[C@H](N(C)C(C)=O)[C@H]2O)CC=C1C [I-i, (5S,6R)-5-[N-methyl(acetamido)]-6-hydroxypolyangioic acid] | >8 µg/mL | >8 µg/mL | >8 µg/mL | >8 µg/mL | >32 µg/mL | >8 µg/mL | 32 µg/mL |  |  |  | >8 µg/mL |  |  |  |  |  |  |
| CC[C@H]1O[C@@H](/C(C)=C/[C@H](C)/C=C/[C@H]2[C@@H](C)[C@@H]2/C=C/[C@@H]2O[C@H](CC(=O)O)C[C@H](NC3CCC3)[C@H]2O)CC=C1C [I-jj, (5S,6R)-5-(cyclobutylamino)-6-hydroxypolyangioic acid] | 2.51 µg/mL | 5.65 µg/mL | 3.17 µg/mL | 1.25 µg/mL | 5.33 µg/mL | 8 µg/mL | 6.67 µg/mL | 0.125 µg/mL (≈ 0.237 µM) | 2 µg/mL (≈ 3.79 µM) | 2 µg/mL (≈ 3.79 µM) | >8 µg/mL |  |  |  |  |  |  |
| CCC(=O)N[C@H]1C[C@@H](CC(=O)O)O[C@@H](/C=C/[C@H]2[C@H](C)[C@@H]2/C=C/[C@@H](C)/C=C(\C)[C@H]2CC=C(C)[C@@H](CC)O2)[C@@H]1O [I-l, (5S,6R)-5-propionamido-6-hydroxypolyangioic acid] | 0.79 µg/mL | 2.82 µg/mL | 1.58 µg/mL | 0.79 µg/mL | 16 µg/mL | 1.41 µg/mL | 8 µg/mL |  |  |  | 5.66 µg/mL |  |  |  |  |  |  |
| CCN[C@H]1C[C@@H](CC(=O)O)O[C@@H](/C=C/[C@H]2[C@H](C)[C@@H]2/C=C/[C@@H](C)/C=C(\C)[C@H]2CC=C(C)[C@@H](CC)O2)[C@@H]1O [I-mm, (5S,6R)-5-(ethylamino)-6-hydroxypolyangioic acid] | 0.79 µg/mL | 1.41 µg/mL | 1.25 µg/mL | 0.79 µg/mL | 0.93 µg/mL | 0.7 µg/mL | 1.28 µg/mL | 0.125 µg/mL (≈ 0.249 µM) | 0.25 µg/mL (≈ 0.498 µM) | 0.0625 µg/mL (≈ 0.125 µM) | 2.82 µg/mL | >12.5 µg/mL | >12.5 µg/mL | >12.5 µg/mL | <0.19 µg/mL | <0.19 µg/mL |  |
| CC[C@H]1O[C@@H](/C(C)=C/[C@H](C)/C=C/[C@H]2[C@@H](C)[C@@H]2/C=C/[C@@H]2O[C@H](CC(=O)N3CCC3)C[C@H](N(C)C)[C@H]2O)CC=C1C [I-pp, (5S,6R)-1-(azetidin-1-yl)-5-dimethylamino-6-hydroxypolyangi-1-one] |  |  |  |  | 2 µg/mL |  | 4 µg/mL |  |  |  |  |  |  |  |  |  | MIC0 Ti ([1]; Trichophyton interdigitale (3 strains), 95% growth inhibition): 5.03 µg/mL; MIC0 Ef (Epidermophyton floccosum; Epidermophyton floccosum (2 strains), 95% growth inhibition): 2.82 µg/mL; MIC0 Tr (Trichophyton rubrum; Trichophyton rubrum (3 strains), 95% growth inhibition): ¼; MIC0 Mg (Microsporum gypseum; Microsporum gypseum (3 strains), 95% growth inhibition): 2.51 µg/mL; MIC0 Mc (Microsporum canis; Microsporum canis (2 strains), 95% growth inhibition): 1 µg/mL; MIC0 Tm ([2]; Trichophyton mentagrophytes (2 strains), 95% growth inhibition): 4 µg/mL |
| C=CCNC(=O)N(C)[C@H]1C[C@@H](CC(=O)O)O[C@@H](/C=C/[C@H]2[C@H](C)[C@@H]2/C=C/[C@@H](C)/C=C(\C)[C@H]2CC=C(C)[C@@H](CC)O2)[C@@H]1O [I-q, (5S,6R)-5-(3-allyl-1-methylureido)-6-hydroxypolyangioic acid] | 12.69 µg/mL | >8 µg/mL | >8 µg/mL | >8 µg/mL | 32 µg/mL | >8 µg/mL | 16 µg/mL |  |  |  | >8 µg/mL |  |  |  |  |  |  |
| CCCN(C)[C@H]1C[C@@H](CC(=O)O)O[C@@H](/C=C/[C@H]2[C@H](C)[C@@H]2/C=C/[C@@H](C)/C=C(\C)[C@H]2CC=C(C)[C@@H](CC)O2)[C@@H]1O [I-t, (5S,6R)-5-(N-propyl-methylamino)-6-hydroxypolyangioic acid] | 1.25 µg/mL | 1.41 µg/mL | 1.58 µg/mL | 2 µg/mL | 2.25 µg/mL | 2.82 µg/mL | 2.25 µg/mL | 0.5 µg/mL (≈ 0.944 µM) | 1 µg/mL (≈ 1.89 µM) | 0.5 µg/mL (≈ 0.944 µM) | 11.31 µg/mL | >12.5 µg/mL | >12.5 µg/mL | >12.5 µg/mL | <0.19 µg/mL | <0.19 µg/mL |  |
| CC[C@H]1O[C@@H](/C(C)=C/[C@H](C)/C=C/[C@H]2[C@@H](C)[C@@H]2/C=C/[C@@H]2O[C@H](CC(=O)O)C[C@H](N(C)Cc3ncc[nH]3)[C@H]2O)CC=C1C [I-y, (5S,6R)-5-(N-(2-imidazolyl)methyl-methylamino)-6-hydroxypolyangioic acid] |  |  | 3.17 µg/mL | 2.51 µg/mL | 9 µg/mL | 4 µg/mL | 8.5 µg/mL | 0.5 µg/mL (≈ 0.881 µM) | 1 µg/mL (≈ 1.76 µM) | 1 µg/mL (≈ 1.76 µM) | 4.18 µg/mL | 3.13 µg/mL (≈ 5.51 µM) | >12.5 µg/mL | >12.5 µg/mL | <0.19 µg/mL | <0.19 µg/mL |  |
| CC[C@H]1O[C@@H](/C(C)=C/[C@H](C)/C=C/[C@H]2[C@@H](C)[C@@H]2/C=C/[C@@H]2O[C@H](CC(=O)O)C[C@H](N(C)C)[C@H]2O)CCC1C (stereo partly shown) [IV-b, 20,21-dihydro ambruticin VS-3] | 2.51 µg/mL | 1.41 µg/mL | 2.51 µg/mL | 1.25 µg/mL | 0.44 µg/mL | 1.41 µg/mL | 0.88 µg/mL |  |  |  | 4 µg/mL |  |  |  |  |  |  |
